For test [1], the target named is T1, aromatase (Homo sapiens, UniProt P11511).
T1 construct: 800 μl cell suspension (1 million cells); endogenous in cells; host or cells: JEG-3 human choriocarcinoma cells
T1 sequence (P11511 1-503): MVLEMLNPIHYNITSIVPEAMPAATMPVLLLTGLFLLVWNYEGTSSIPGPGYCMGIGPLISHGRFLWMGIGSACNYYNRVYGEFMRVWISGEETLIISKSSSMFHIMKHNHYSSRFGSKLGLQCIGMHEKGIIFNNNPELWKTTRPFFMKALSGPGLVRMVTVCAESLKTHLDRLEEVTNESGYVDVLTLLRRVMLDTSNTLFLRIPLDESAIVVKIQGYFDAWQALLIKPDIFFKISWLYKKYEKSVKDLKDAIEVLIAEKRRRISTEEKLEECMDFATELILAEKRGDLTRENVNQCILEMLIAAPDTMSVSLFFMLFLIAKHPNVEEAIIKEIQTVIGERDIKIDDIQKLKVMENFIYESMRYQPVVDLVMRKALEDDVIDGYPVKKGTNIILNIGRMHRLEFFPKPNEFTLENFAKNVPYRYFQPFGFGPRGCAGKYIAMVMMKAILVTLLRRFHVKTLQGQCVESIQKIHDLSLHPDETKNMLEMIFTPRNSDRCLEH
Kind of test: Aromatase inhibiting capacity in JEG-3 cells (3H-17β-estradiol formation from 3H-androstenedione). The class given is cell-based. The following applies: 4 h incubation, FIG. 1. As for the experimental part: The effects of HMR and structurally related lignans (enterolactone, enterodiol and 7-hydroxyenterolactone) were studied on formation of ^3H-17β-estradiol from ^3H-andostenedione in JEG-3 cells, human choriocarcinoma cell line. […] Cells were maintained in DMEM containing 10% fetal calf serum (FCS). The incubation mixture contained 50 μl ^3H-androst-4-ene, 3,17-dione (0.5 nM), 50 μl unlabelled androstenedione (0.5 nM), 100 μl test compounds (10 mM) and 800 μl cell suspension (1 million cells). After the incubation for 4 h, unlabelled carriers (androstenedione, testosterone, 17β-estradiol and estrone) were added. The steroids were extracted twice with 3.0 ml dichloromethane. […] The column system consisted of a guard column followed by a C18 150×3.9 mm ID analytical column (Technopak 10 C18 HPLC Technology; Wellington House, Cheshire, UK). The mobile phase was acetonitrile/water (35/65) and the flow rate was 1.2 ml/min. For in-line detection of the radioactive metabolites, the eluent of the HPCL column was continuously mixed with liquid scintillant and then monitored with in-line radioactivity detector.

Test [2] deals with tert-butylhydroperoxide-induced lipid peroxidation (t-BuOOH-LP) in rat liver microsomes. Briefly: Inhibition of tert-butylhydroperoxide-induced lipid peroxidation (t-BuOOH-LP), chemiluminescence. It is filed as biochemical. As for the experimental part:
Inhibition of lipid peroxidation was evaluated on the basis of their potency to inhibit tert-butylhydroperoxide-induced lipid peroxidation (t-BuOOH-LP) in rat liver microsomes in vitro (Ahotupa et al. 1997). The test for the t-BuOOH-LP was carried out as follows: The buffer (50 mM sodium carbonate, pH 10.2, with 0.1 mM EDTA) was pipetted in a volume of 0.8 ml in the luminometer cuvette. Twenty microliters of diluted liver microsomes, final concentration 1.5 mg protein/ml, was added, followed by […] of luminol (0.5 mg/ml) and test chemicals. The test compounds were added to incubation mixtures in a small volume diluted in ethanol or dimethylsulphoxide (2% of incubation volume), and the lipid peroxidation potency was compared to that of the vehicle (ethanol or dimethyl sulphoxide). The reaction was initiated by 0.05 ml of 0.9 mM t-BuOOH at 33° C. Chemiluminescence was measured for about 45 min at 1 min cycles, and the area under curve (integral) was calculated. Chemiluminescence measurements were carried out using a Bio-Orbit 1251 Luminometer (Bio-Orbit, Turku, Finland) connected to a personal computer using dedicated software for the assays.

Test [3] in a line: Superoxide anion scavenging (xanthine-xanthine oxidase system, chemiluminescence). The class given is biochemical. The following applies: read-out: Superoxide anion scavenging, IC-50. As for the experimental part: Superoxide anion scavenging method was based on the superoxide anion produced in controlled conditions by xanthine-xanthine oxidase system and detection of the generated reactive oxygen species by luminometer (Ahotupa et al., 1997). The ability of test compounds to decrease the chemiluminescence was evaluated. IC-50 concentration (concentration which prevented the chemiluminescence by 50%) was calculated.

For test [4], the system named is uterine growth of immature rats. Briefly: Immature rat uterotropic test. The class given is in vivo. The following applies: methodological control for non-estrogen-stimulated uterus. As for the experimental part: The estrogenicity HMR was evaluated by the uterotropic assay in immature rats which was performed as described earlier (Jordan et al. 1977), with the exception of treatment time which was 7 days instead of 3 days in the reference study. The treatment time was longer because of the expected weak estrogenicity of the test compound. The treatment of immature rats with an aromatase inhibitor (MPV-2213 ad), which prevents biosynthesis of estradiol, was used as a methodological control for non-estrogen-stimulated uterus.

The test system of test [5] is low density lipoprotein (LDL) oxidation. Briefly: Inhibition of LDL oxidation (CuCl2-induced, absorbance at 234 nm). The class given is biochemical. The following applies: CuCl2, 3 hrs at +37° C.; read-out: Inhibition of LDL oxidation, IC-50. As for the experimental part: Inhibition of LDL oxidation was estimated as described by Ahotupa et al, 1996. Shortly: LDL was isolated by precipitation with buffered heparin. After resuspendation in phosphate buffer, 20 mM CuCl2 was added and the mixture was incubated for 3 hrs at +37° C. After this, LDL lipids were extracted with chloroform-methanol, dried under nitrogen, redissolved in cyclohexane and analyzed spectrophotometrically at 234 nm. The intensity of absorbance is indicative of LDL oxidation. To test the ability of different compounds to prevent LDL oxidation, the compounds were added to the incubation mixture prior addition of CuCl2. Possible interference of test compounds with the assay procedure was excluded by measuring the absorption at 234 nm before and after the incubation period.

Test [6] deals with MCF-7 cells. The following applies: Mousavi and Adlercreutz 1992; cited from earlier work.
Test [7] concerns mouse uterine weight. The following applies: Setchell et al. 1981; cited from earlier work.
Test [8] concerns uterine weight. The following applies: feeding during pregnancy and lactation to rats; effect not evident at later stages; Tou et al. 1998; cited from earlier work.
Test [9] deals with antiestrogen-sensitive DMBA-induced breast cancer. The following applies: supplementation of a high-fat diet, rat; Serraino and Thompson, Thompson et al.; cited from earlier work.
Test [10] deals with chemically induced aberrant crypts in rat colon. The following applies: diet supplementation; Serraino and Thompson 1992, Jenab and Thompson 1996; cited from earlier work.
[11] abbreviates: Table 3 comparison with known antioxidants, read-out: Inhibition of lipid peroxidation, IC-50.
Setting [12] is: lipid peroxidation inhibition test, rat liver microsomes, Table 2, read-out: Antioxidative capacity (t-BuOOH-LP) IC50.

Like-named read-outs stand apart in the source and are kept apart here.

For the compound `O=C1OC[C@H](Cc2cccc(O)c2)[C@H]1[C@@H](O)c1cccc(O)c1` [7-hydroxyenterolactone], in [1], the “Inhibition of aromatization (3H-17β-estradiol formation from 3H-androstenedione)” value (from here on “Inhibition of aromatization”) is “no inhibitory effects”.

Consider `COc1ccc(O)c(C(C)(C)C)c1` [BHA, Butylated hydroxyanisol], for which the IC50 amounted to 1.1 µM in test [2] (setting [11]) and 0.015 mM in test [3].

`Cc1cc(C(C)(C)C)c(O)c(C(C)(C)C)c1` [BHT, Butylated hydroxytoluene]: the results for the IC50 in [2] (setting [11]) and in test [3] (value in mM) were 15.3 µM and greater than 1 mM, respectively.

`N#Cc1ccc(C(C(O)Cc2ccc(F)cc2)n2cncn2)cc1` (stereo not drawn) [MPV-2213 ad, reference compound]: the “Effect on increase of uterine weight” value in test [4] is “prevented the increase of uterine weight”.

On to `Cc1c(C)c2c(c(C)c1O)CCC(C)(C(=O)O)O2` (stereo not drawn) [TROLOX], for which the IC50 is 0.02 µM in [2] (setting [11]), 0.025 mM in test [3] and 2.7 µM in test [5].

As to `OCC(Cc1cccc(O)c1)C(CO)Cc1cccc(O)c1` (stereo not drawn) [enterodiol, 2,3-bis-(3′-hydroxybenzyl)-butane-1,4-diol], the IC50 in test [2] (setting [12]) came to 12.7 µM. For the same compound, the “Inhibition of aromatization” value in test [1] is listed as “noninhibitory”.

Turning to `O=C1OCC(Cc2cccc(O)c2)C1Cc1cccc(O)c1` (stereo not drawn) [enterolactone, 2,3-bis-(3′-hydroxybenzyl)-butyrolactone], the IC50 in test [2] (setting [12]) stood at 15.9 µM. In [6], the “Estrogenic potency in MCF-7 cells” value is reported as “weak estrogenic potency”. Also, in test [7], the “Estrogenic response in mouse uterine weight” value was “no estrogenic response”. In addition, the “Inhibition of aromatization” value in test [1] is listed as “dose-dependent inhibition”.

With `COc1ccc(-c2oc3cc(O)cc(O)c3c(=O)c2O)cc1` [kaempferide, 3,5,7-trihydroxy-4′-methoxy-flavone], the IC50 in test [2] (setting [12]) was 0.5 µM.

Regarding `O=c1c(O)c(-c2ccc(O)cc2)oc2cc(O)cc(O)c12` [kaempferol, 3,4′,5,7-tetrahydroxy-flavone], in test [2] (setting [12]), the IC50 is 0.9 µM.

As to `O=c1c(O)c(-c2ccc(O)c(O)c2)oc2cc(O)cc(O)c12` [quercetin, 3,3′,4′,5,7-pentahydroxy-flavone], the IC50 in test [2] (setting [12]) came to 0.4 µM.

secoisolariciresinol-diglycoside [SDG]: in test [8], the Uterine weight entry is on record as “increased the uterine weight at weaning”. In addition, the “Development of DMBA-induced breast cancer” value in [9] is given as “prevented the development”. The “Formation of chemically induced aberrant crypts in rat colon” value in test [10] is “inhibited the formation”.

The values are drawn from patent publication US7005447B2, “Food product comprising hydroxymatairesinol” (Hormos Nutraceutical Oy Ltd., priority 1999, dated 2006).
